# Measurements taken from US11814445B2, “Cyclic polypeptides for PCSK9 inhibition” (Ra Pharmaceuticals, Inc., priority 2018, dated 2023).
# Numbered stars: 1 amine (or outer) side, 2 acyl side, 3 side chain; on linkers, the order of the positions; unused ones are H or OH. Bridge positions count the residues as written; N and C are the ends. Square brackets hold non-standard residues; d marks the D form. Peptide text beside a SMILES is read from it. ξ: configuration not given here. X2 = NC(=O)[C@H](CSCc1cccc(C[*:1])c1)CC(=O)[C@@H]1CCCN1[*:2]; Phe(3,4,5-F3) = N[C@@H](Cc1cc(F)c(F)c(F)c1)C(=O)O; Trp(5-F) = N[C@@H](Cc1c[nH]c2ccc(F)cc12)C(=O)O; Asp(3,3-Me2) = CC(C)(C(=O)O)[C@H](N)C(=O)O; Bip = N[C@@H](Cc1ccc(-c2ccccc2)cc1)C(=O)O; Phe(3-CN) = N#Cc1cccc(C[C@H](N)C(=O)O)c1; X1 = O=C(CCSCc1cccc(CSCCN[*:1])c1)[*:2]; Phe(4-F) = N[C@@H](Cc1ccc(F)cc1)C(=O)O; Pro(4,4-F2) = O=C(O)[C@@H]1CC(F)(F)CN1; 1Nal = N[C@@H](Cc1cccc2ccccc12)C(=O)O; 2Nal = N[C@@H](Cc1ccc2ccccc2c1)C(=O)O; mXylylene = c1cc(C[*:1])cc(C[*:2])c1; NMeY = CN[C@@H](Cc1ccc(O)cc1)C(=O)O; hhPhe = N[C@@H](CCCc1ccccc1)C(=O)O; Cha = N[C@@H](CC1CCCCC1)C(=O)O; αMeP = C[C@@]1(C(=O)O)CCCN1; Aze = O=C(O)[C@@H]1CCN1; Aib = CC(C)(N)C(=O)O; ξP = O=C(O)C1CCCN1; Mpa = O=C(O)CCS
# Tests used:
# [1] = target: human PCSK9 / human LDLR EGFa domain (Homo sapiens, UniProt Q8NBP7); assay: TR-FRET assay of inhibition of the PCSK9-LDLR protein-protein interaction; format: binding; conditions: 20 nM human PCSK9, 20 nM human LDLR EGFa domain, 2 hours room temperature
# Procedure: A time-resolved fluorescence resonance energy (TR-FRET) assay was used to measure inhibition of the PCSK9-LDLR protein-protein interaction. Briefly, 20 nM avitag-biotinylated human PCSK9 was incubated with 20 nM his-tagged human LDLR EGFa domain in the presence of 5 nM LANCE Ulight Streptavidin (Perkin Elmer) and 5 nM europium-Anti-6×His (Perkin Elmer) for 2 hours covered at room temperature in buffer containing 50 mM HEPES, 150 mM NaCl, 5 mM CaCl2), 0.01% BSA and 0.01% Surfactant P20. Compounds were tested in dose-response and concentrations giving half-maximal inhibition calculated using a 4-parameter fit equation.
# PCSK9 = target: T1, PCSK9 (Homo sapiens, UniProt Q8NBP7); assay: PCSK9 Alexa FRET Standard assay (displacement of AlexaFluor647 tagged cyclic peptide Reagent A); format: binding; conditions: 0.5 nM PCSK9, 20 nM AF cyclic peptide Reagent A
# T1 construct: biotin (biotinylated)
# Procedure: A solution containing 1 nM biotinylated PCSK9+2.5 nM Lance Streptavidin Europium (Strep-Eu) was made in 50 mM HEPES pH 7.4, 0.15 M NaCl, 5 mM CaCl2), 0.01% BSA, and 0.01% Surfactant P20. A separate solution containing 40 nM of the AlexaFluor tagged cyclic peptide was made in the same buffer system. An Echo was used to transfer 0.750 ul of compound to an assay plate followed by the addition of 15 ul of PCSK9+Stept-Eu and 15 ul of AF peptide. The final assay volume was 30.750 ul containing 0.5 nM PCSK9, 1.25 nM Strep-Eu, and 20 nM AF cyclic peptide. The reaction was incubated at room temperature for at least two hours prior to fluorescence measurements using an Envision Multilabel Reader. IC50 values were determined by fitting data to a sigmoidal dose-response curve using nonlinear regression. Ki was then calculated from the IC50 and the KD of AF cyclic peptide. Counts (B-counts) of the europium-labeled PCSK9 were followed to observe if compounds were […]. A fall off of the B-counts likely indicated a false positive of inhibition. Data from this procedure was reported as “A=‘numerical value’ (nanomolar)”
# T1 sequence (Q8NBP7 153-692): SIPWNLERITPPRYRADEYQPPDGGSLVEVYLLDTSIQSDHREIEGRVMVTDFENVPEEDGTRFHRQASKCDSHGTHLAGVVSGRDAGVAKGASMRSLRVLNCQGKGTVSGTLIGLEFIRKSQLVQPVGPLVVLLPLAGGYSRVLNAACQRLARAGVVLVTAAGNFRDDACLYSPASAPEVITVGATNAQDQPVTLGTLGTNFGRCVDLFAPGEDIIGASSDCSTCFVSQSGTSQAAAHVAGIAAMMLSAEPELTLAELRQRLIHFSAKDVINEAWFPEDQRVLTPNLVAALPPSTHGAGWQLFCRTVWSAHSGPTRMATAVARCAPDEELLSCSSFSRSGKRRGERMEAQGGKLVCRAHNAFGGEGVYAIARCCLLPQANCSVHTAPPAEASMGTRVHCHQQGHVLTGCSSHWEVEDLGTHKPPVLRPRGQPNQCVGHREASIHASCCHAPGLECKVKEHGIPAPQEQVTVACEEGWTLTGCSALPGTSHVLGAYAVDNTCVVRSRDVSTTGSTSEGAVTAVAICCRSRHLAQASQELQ
# human PCSK9 / human LDLR EGFa domain, sequence (Q8NBP7 153-692): as above
SMILES,IC50 [1] [nM],IC50 (PCSK9) [nM]
C[C@@H]1NC(=O)[C@@H]2CCCN2C(=O)[C@H](Cc2ccc(F)cc2)NC(=O)[C@H](Cc2c[nH]c3ccc(F)cc23)NC(=O)CNC(=O)[C@H](CCCCN)NC(=O)CCSCc2cccc(c2)CSC[C@@H](C(N)=O)NC(=O)[C@@H]2CCCN2C(=O)[C@H](Cc2ccc(O)cc2)NC1=O [Compound 006] ([Mpa]KG[Trp(5-F)][Phe(4-F)]PAYPC-NH2; linker 1-10 via mXylylene),100 to 1000,100 to 1000
C[C@@H]1NC(=O)[C@@H]2CCCN2C(=O)[C@H](Cc2ccc3ccccc3c2)NC(=O)[C@H](Cc2c[nH]c3ccc(F)cc23)NC(=O)CNC(=O)[C@H](CCCCN)NC(=O)CCSCc2cccc(c2)CSC[C@@H](C(N)=O)NC(=O)[C@@H]2CCCN2C(=O)[C@H](Cc2ccc(O)cc2)NC1=O [Compound 011] ([Mpa]KG[Trp(5-F)][2Nal]PAYPC-NH2; linker 1-10 via mXylylene),1 to 100,1 to 100
C[C@@H]1NC(=O)[C@@H]2CCCN2C(=O)[C@H](Cc2cccc3ccccc23)NC(=O)[C@H](Cc2c[nH]c3ccc(F)cc23)NC(=O)CNC(=O)[C@H](CCCCN)NC(=O)CCSCc2cccc(c2)CSC[C@@H](C(N)=O)NC(=O)[C@@H]2CCCN2C(=O)[C@H](Cc2ccc(O)cc2)NC1=O [Compound 012] ([Mpa]KG[Trp(5-F)][1Nal]PAYPC-NH2; linker 1-10 via mXylylene),1 to 100,1 to 100
C[C@@H]1NC(=O)[C@@H]2CCCN2C(=O)[C@H](CCCc2ccccc2)NC(=O)[C@H](Cc2c[nH]c3ccc(F)cc23)NC(=O)CNC(=O)[C@H](CCCCN)NC(=O)CCSCc2cccc(c2)CSC[C@@H](C(N)=O)NC(=O)[C@@H]2CCCN2C(=O)[C@H](Cc2ccc(O)cc2)NC1=O [Compound 013] ([Mpa]KG[Trp(5-F)][hhPhe]PAYPC-NH2; linker 1-10 via mXylylene),1 to 100,1 to 100
"C[C@@H]1NC(=O)[C@@H]2CCCN2C(=O)[C@H](Cc2cc(F)c(F)c(F)c2)NC(=O)[C@H](Cc2c[nH]c3ccc(F)cc23)NC(=O)CNC(=O)[C@H](CCCCN)NC(=O)CCSCc2cccc(c2)CSC[C@@H](C(N)=O)NC(=O)[C@@H]2CCCN2C(=O)[C@H](Cc2ccc(O)cc2)NC1=O [Compound 014] ([Mpa]KG[Trp(5-F)][Phe(3,4,5-F3)]PAYPC-NH2; linker 1-10 via mXylylene)",1 to 100,1 to 100
C[C@@H]1NC(=O)[C@@H]2CCCN2C(=O)[C@H](Cc2cccc(C#N)c2)NC(=O)[C@H](Cc2c[nH]c3ccc(F)cc23)NC(=O)CNC(=O)[C@H](CCCCN)NC(=O)CCSCc2cccc(c2)CSC[C@@H](C(N)=O)NC(=O)[C@@H]2CCCN2C(=O)[C@H](Cc2ccc(O)cc2)NC1=O [Compound 015] ([Mpa]KG[Trp(5-F)][Phe(3-CN)]PAYPC-NH2; linker 1-10 via mXylylene),1 to 100,1 to 100
C[C@@H]1NC(=O)[C@@H]2CCCN2C(=O)[C@H](Cc2ccc(-c3ccccc3)cc2)NC(=O)[C@H](Cc2c[nH]c3ccc(F)cc23)NC(=O)CNC(=O)[C@H](CCCCN)NC(=O)CCSCc2cccc(c2)CSC[C@@H](C(N)=O)NC(=O)[C@@H]2CCCN2C(=O)[C@H](Cc2ccc(O)cc2)NC1=O [Compound 017] ([Mpa]KG[Trp(5-F)][Bip]PAYPC-NH2; linker 1-10 via mXylylene),100 to 1000,1000 to 12100
C[C@@H]1NC(=O)[C@@H]2CCN2C(=O)[C@H](Cc2c[nH]c3ccc(F)cc23)NC(=O)[C@H](Cc2c[nH]c3ccc(F)cc23)NC(=O)[C@@H](C)NC(=O)[C@H](CCCCN)NC(=O)CCSCc2cccc(c2)CSC[C@@H](C(N)=O)CC(=O)[C@@H]2CCCN2C(=O)[C@H](Cc2ccc(O)cc2)NC1=O [Compound 034] ([Mpa]K[dA][Trp(5-F)][Trp(5-F)][Aze]AY; linker 1-C via X2),100 to 1000,1 to 100
"C[C@@H]1NC(=O)[C@@H]2CC(F)(F)CN2C(=O)[C@H](Cc2c[nH]c3ccc(F)cc23)NC(=O)[C@H](Cc2c[nH]c3ccc(F)cc23)NC(=O)[C@@H](C)NC(=O)[C@H](CCCCN)NC(=O)CCSCc2cccc(c2)CSC[C@@H](C(N)=O)NC(=O)[C@@H]2CCCN2C(=O)[C@H](Cc2ccc(O)cc2)NC1=O [Compound 036] ([Mpa]K[dA][Trp(5-F)][Trp(5-F)][Pro(4,4-F2)]AYPC-NH2; linker 1-10 via mXylylene)",100 to 1000,100 to 1000
NCCCC[C@@H]1NC(=O)CCSCc2cccc(c2)CSCCNC(=O)C2CCCN2C(=O)[C@H](Cc2ccc(O)cc2)NC(=O)CNC(=O)[C@H]2CCCN2C(=O)[C@H](Cc2c[nH]c3ccc(F)cc23)NC(=O)[C@H](Cc2c[nH]c3ccc(F)cc23)NC(=O)CNC1=O (some centres unmarked) [Compound 041] (cyclo(G[Trp(5-F)][Trp(5-F)][dP]GY[ξP][X1]K)),1 to 100,1 to 100
C[C@@]12CCCN1C(=O)[C@H](Cc1ccc(O)cc1)NC(=O)[C@H](Cc1cnc[nH]1)NC(=O)[C@@H]1CCCN1C(=O)[C@H](Cc1c[nH]c3ccc(F)cc13)NC(=O)[C@H](CC1CCCCC1)NC(=O)CNC(=O)[C@H](CCCCN)NC(=O)CCSCc1cccc(c1)CSCCNC2=O [Compound 104] (cyclo([Cha][Trp(5-F)]PHY[αMeP][X1]KG)),1000 to 12100,
C[C@@H](O)[C@@H]1NC(=O)CNC(=O)[C@H](CCCCN)NC(=O)CCSCc2cccc(c2)CSCCNC(=O)[C@]2(C)CCCN2C(=O)[C@H](Cc2ccc(O)cc2)NC(=O)[C@H](Cc2cnc[nH]2)NC(=O)[C@@H]2CCCN2C(=O)[C@H](Cc2c[nH]c3ccc(F)cc23)NC1=O [Compound 105] (cyclo(GT[Trp(5-F)]PHY[αMeP][X1]K)),100 to 1000,
CN1C(=O)[C@H](Cc2cnc[nH]2)NC(=O)[C@@H]2CCCN2C(=O)[C@H](Cc2c[nH]c3ccc(F)cc23)NC(=O)[C@H](CC2CCCCC2)NC(=O)CNC(=O)[C@H](CCCCN)NC(=O)CCSCc2cccc(c2)CSCCNC(=O)[C@]2(C)CCCN2C(=O)[C@@H]1Cc1ccc(O)cc1 [Compound 106] (cyclo([Cha][Trp(5-F)]PH[NMeY][αMeP][X1]KG)),100 to 1000,
CN1C(=O)[C@H](Cc2cnc[nH]2)NC(=O)C(C)(C)NC(=O)[C@H](Cc2c[nH]c3ccc(F)cc23)NC(=O)[C@H](Cc2c[nH]c3ccc(F)cc23)NC(=O)CNC(=O)[C@H](CCCCN)NC(=O)CCSCc2cccc(c2)CSCCNC(=O)[C@]2(C)CCCN2C(=O)[C@@H]1Cc1ccc(O)cc1 [Compound 111] (cyclo([Aib]H[NMeY][αMeP][X1]KG[Trp(5-F)][Trp(5-F)])),1000 to 12100,
C[C@@H]1NC(=O)CNC(=O)[C@H](CCCCN)NC(=O)CCSCc2cccc(c2)CSC[C@@H](C(N)=O)NC(=O)[C@@H]2CCCN2C(=O)[C@H](Cc2ccc(O)cc2)NC(=O)[C@H](Cc2cnc[nH]2)NC(=O)[C@H](CC(=O)O)NC(=O)[C@H](Cc2c[nH]c3ccc(F)cc23)NC1=O [Compound 112] ([Mpa]KGA[Trp(5-F)]DHYPC-NH2; linker 1-10 via mXylylene),100 to 1000,
"CC(C)(C(=O)O)[C@@H]1NC(=O)[C@H](Cc2c[nH]c3ccc(F)cc23)NC(=O)[C@H](Cc2c[nH]c3ccc(F)cc23)NC(=O)CNC(=O)[C@H](CCCCN)NC(=O)CCSCc2cccc(c2)CSC[C@@H](C(N)=O)NC(=O)[C@]2(C)CCCN2C(=O)[C@H](Cc2ccc(O)cc2)NC(=O)[C@H](Cc2cnc[nH]2)NC1=O [Compound 115] ([Mpa]KG[Trp(5-F)][Trp(5-F)][Asp(3,3-Me2)]HY[αMeP]C-NH2; linker 1-10 via mXylylene)",100 to 1000,
